Source: US7803757B2, “Peptides based on the sequence of human lactoferrin and their use” (PharmaSurgics in Sweden AB, priority 1998, dated 2010)
Square brackets hold non-standard residues; d marks the D form. Ends that are not written are not given here. Nle = CCCC[C@H](N)C(=O)O; Orn = NCCC[C@H](N)C(=O)O

Key:
Assay type in all cases: cell-based
[1] = test system: S. aureus; assay: MMC99% of modified peptides, S. aureus (Example 25); settings: BHI diluted 1/100, pH approximately 6.7-6.9 (Table 21)
Method: (§1) In the examples, the minimal microbicidal concentrations (MMC) and minimal inhibitory concentrations (MIC) were determined as follows, unless otherwise specified in the examples. Bacterial or fungal strains were cultured in BHI medium over night at 37° C. A volume of the culture was transferred to a new tube with BHI and incubated for two more hours. Thereafter the cells were spun down and the pellet was suspended in BHI medium diluted 1/100 (1% BHI). The concentration of bacterial or fungal cells was spectrophotometrically determined at 650 nm. The microbial concentrations were also determined by viable counts. Peptides serially diluted in 1% BHI by twofold or tenfold steps were added in triplicate to the wells of a microtiterplate (200 μl per well). The bacterial or fungal cell solutions were added in 10 μl volumes to give a final concentration of approximately 1-5×10^5 cells per ml in the well. The microplate was incubated at 37° C. in a humid chamber for two hours. Thereafter 5 μl was taken from each well and added as a drop onto a blood agar plate and incubated over night at 37° C. The microplate was incubated for another 20 hours at 37° C. and thereafter analysed spectrophotometrically at 650 nm in a microplate reader (Emax, Molecular Devices, USA). The concentration of peptide causing a 99% reduction of the inoculum after 2 hours of incubation was defined as the MMC99%. The MIC value was defined as the concentration giving no increase in the absorbance value above the background level after 20 hours of incubation.
(§2) In this example the fungicidal, and bactericidal effects of the different peptides obtained in examples 18-21 were studied. C. albicans, E. coli and S. aureus, respectively, were incubated in BHI medium diluted 1/100, with a pH of approximately 6.7-6.9. The concentration of each peptide needed to kill 99% of the microorganisms (MMC99%) was determined.

[2] = test system: C. albicans; assay: MMC99% of modified peptides, C. albicans (Example 25); settings: BHI diluted 1/100, pH approximately 6.7-6.9 (Table 21)
Method: as §1, §2

[3] = test system: E. coli; assay: MMC99% of modified peptides, E. coli (Example 25); settings: BHI diluted 1/100, pH approximately 6.7-6.9 (Table 21)
Method: as §1, §2

[4] = test system: E. faecalis; assay: killing of bacteria at fixed peptide concentration, E. faecalis (Example 12); settings: peptide 25 μg/ml
Method: (§3) In this example, the peptides according to the invention were used to study the effect on the killing of different bacteria.
(§4) The peptides were used at a concentration of 25 μg/ml.

[5] = test system: K. pneumoniae; assay: killing of bacteria at fixed peptide concentration, K. pneumoniae (Example 12); settings: peptide 25 μg/ml
Method: as §3, §4

[6] = test system: P. aeruginosa; assay: killing of bacteria at fixed peptide concentration, P. aeruginosa (Example 12); settings: peptide 25 μg/ml
Method: as §3, §4

[7] = test system: S. epidermis; assay: killing of bacteria at fixed peptide concentration, S. epidermis (Example 12); settings: peptide 25 μg/ml
Method: as §3, §4

[8] = test system: S. aureus; assay: killing of bacteria at fixed peptide concentration, S. aureus (Example 12); settings: peptide 25 μg/ml
Method: as §3, §4

[9] = test system: C. albicans yeast cells (ATCC64549); assay: killing and growth inhibition of C. albicans at pH 4.5 (Example 11); set-up: key to C. albicans inhibition (OD650): + = no increase in OD650 is seen; − = OD650 continues to increase; settings: pH 4.5, 1% BHI, 25 μg/ml of the peptide; for C. albicans inhibition (OD650): OD650 after an additional 18 hours; for C. albicans killing: 99% / C. albicans killing: 100%: 2 hours
Method: C. albicans yeast cells (ATCC64549) were incubated for 2 hours at pH 4.5 in BHI medium diluted to 1% of the original concentration containing 25 µg/ml of the peptide. Thereafter the fungal solutions were cultured on blood agar plates. OD650 was measured after incubation during an additional 18 hours. The fungicidal effect of the peptides on C. albicans was determined as the ability of the peptide to kill 100% and 99%, respectively, of the fungus, while the growth inhibitory effect was determined by measuring the OD650. An inhibitory effect existed when no increase in OD650 was recorded.

[10] = test system: E. coli O6; settings: for MMC99%: E. coli O6, tested at 1, 10, 25 and 100 μg/ml of peptide; for MIC: O6
Method: as §1
(§5) C. albicans (ATCC64549) and E. coli O6, respectively, were incubated with the different peptides. The experiments were performed with 1, 10, 25 and 100 μg/ml of peptide.

[11] = test system: C. albicans (ATCC64549); settings: for MIC: ATCC64549; for MMC99%: C. albicans, tested at 1, 10, 25 and 100 μg/ml of peptide
Method: as §1, §5

Substance | MMC99% [1] | MMC99% [2] | MMC99% [3] | other results
C-F-Q-L-Q-R-N-M-R-K-V-R (CFQLQRNMRKVR) [SEQ. ID. NO. 80] | 7 | 6 | 12 | 
Peptide 6: SEQ. ID. NO. 1 with X1 none, X2 none, X5 A, X7 K, X11 D, X17-25 none; 14 residues (Ac-TKAFKWQRDMRKVR) |  |  |  | killing of bacteria: E. faecalis [4]: + (+ = 99% of the bacteria are killed); killing of bacteria: K. pneumoniae [5]: + (+ = 99% of the bacteria are killed); killing of bacteria: P. aeruginosa [6]: + (+ = 99% of the bacteria are killed); killing of bacteria: S. epidermis [7]: + (+ = 99% of the bacteria are killed); killing of bacteria: S. aureus [8]: + (+ = 99% of the bacteria are killed); C. albicans inhibition (OD650) [9]: −; C. albicans killing: 99% [9]: + (+ = 100/99% of the bacteria are killed); C. albicans killing: 100% [9]: − (− = less than 100/99% of the bacteria are killed)
QPEATKCFQWQRNMRKVR [Peptide 33] |  |  |  | killing of bacteria: E. faecalis [4]: + (+ = 99% of the bacteria are killed); killing of bacteria: K. pneumoniae [5]: − (− = less than 99% of the bacteria are killed); killing of bacteria: P. aeruginosa [6]: − (− = less than 99% of the bacteria are killed); killing of bacteria: S. epidermis [7]: + (+ = 99% of the bacteria are killed); MMC99% [10]: 25 µg/mL; MIC [10]: 10 µg/mL; MIC [11]: 10 µg/mL; MMC99% [11]: 100 µg/mL; killing of bacteria: S. aureus [8]: + (+ = 99% of the bacteria are killed); C. albicans inhibition (OD650) [9]: −; C. albicans killing: 99% [9]: − (− = less than 100/99% of the bacteria are killed); C. albicans killing: 100% [9]: − (− = less than 100/99% of the bacteria are killed)
Peptide 62: third embodiment, comprises a cysteine; sequence only in sequence listing (ATKCFQWQRNMRKVR) |  |  |  | killing of bacteria: E. faecalis [4]: + (+ = 99% of the bacteria are killed); killing of bacteria: K. pneumoniae [5]: + (+ = 99% of the bacteria are killed); killing of bacteria: P. aeruginosa [6]: + (+ = 99% of the bacteria are killed); killing of bacteria: S. epidermis [7]: + (+ = 99% of the bacteria are killed); killing of bacteria: S. aureus [8]: + (+ = 99% of the bacteria are killed); C. albicans inhibition (OD650) [9]: +; C. albicans killing: 99% [9]: + (+ = 100/99% of the bacteria are killed); C. albicans killing: 100% [9]: − (− = less than 100/99% of the bacteria are killed)
Ac-ATKCFQWQRNMRKVR-NH2 (N-terminus and C-terminus assumed) [Peptide 63] |  |  |  | MMC99% [10]: 10 µg/mL; MIC [10]: 10 µg/mL; MIC [11]: 10 µg/mL; MMC99% [11]: 10 µg/mL
C-F-Q-W-Q-R-N-M-A-K-V-R (CFQWQRNMAKVR) [SEQ. ID. NO. 76] | 7 | 25 | 25 | 
C-F-Q-W-Q-R-N-M-R-K-V-A (CFQWQRNMRKVA) [SEQ. ID. NO. 79] | 7 | 25 | 12 | 
C-F-Q-W-Q-K-N-M-R-K-V-R (CFQWQKNMRKVR) [SEQ. ID. NO. 81] | 7 | 6 | 6 | 
C-F-Q-W-Q-A-N-M-R-K-V-R (CFQWQANMRKVR) [SEQ. ID. NO. 73] | 7 | 12 | 12 | 
Peptide 66: third embodiment, comprises a cysteine; sequence only in sequence listing (PEATKCFQWQRNMRKVR) |  |  |  | killing of bacteria: E. faecalis [4]: + (+ = 99% of the bacteria are killed); killing of bacteria: K. pneumoniae [5]: − (− = less than 99% of the bacteria are killed); killing of bacteria: P. aeruginosa [6]: − (− = less than 99% of the bacteria are killed); killing of bacteria: S. epidermis [7]: + (+ = 99% of the bacteria are killed); killing of bacteria: S. aureus [8]: + (+ = 99% of the bacteria are killed); C. albicans inhibition (OD650) [9]: +; C. albicans killing: 99% [9]: + (+ = 100/99% of the bacteria are killed); C. albicans killing: 100% [9]: − (− = less than 100/99% of the bacteria are killed)
C-F-Q-W-Q-R-Orn-M-R-K-V-R (CFQWQR[Orn]MRKVR) [SEQ. ID. NO. 89] | 3.5 | 6 | 6 | 
C-F-Q-W-Q-R-N-A-R-K-V-R (CFQWQRNARKVR) [SEQ. ID. NO. 75] | 7 | 25 | 12 | 
C-F-A-W-Q-R-N-M-R-K-V-R (CFAWQRNMRKVR) [SEQ. ID. NO. 70] | 7 | 6 | 6 | 
Ac-PEATKCFQWQRNMRKVR-NH2 (N-terminus and C-terminus assumed) [Peptide 67] |  |  |  | MMC99% [10]: 10 µg/mL; MIC [10]: 10 µg/mL; MIC [11]: 10 µg/mL; MMC99% [11]: 10 µg/mL
Ac-TKAFKWQRDMRKVR-NH2 (N-terminus and C-terminus assumed) [Peptide 53] |  |  |  | MMC99% [10]: 10 µg/mL; MIC [10]: 10 µg/mL; MIC [11]: 10 µg/mL; MMC99% [11]: 10 µg/mL
C-F-Q-W-A-R-N-M-R-K-V-R (CFQWARNMRKVR) [SEQ. ID. NO. 72] | 7 | 12 | 12 | 
C-F-Q-W-Q-R-N-M-K-K-V-R (CFQWQRNMKKVR) [SEQ. ID. NO. 83] | 7 | 6 | 6 | 
C-F-Q-W-Q-R-N-L-R-K-V-R (CFQWQRNLRKVR) [SEQ. ID. NO. 82] | 7 | 6 | 12 | 
C-F-Q-W-Q-R-N-M-R-K-A-R (CFQWQRNMRKAR) [SEQ. ID. NO. 78] | 7 | 25 | 12 | 
C-F-Q-W-Q-R-E-M-R-K-V-R (CFQWQREMRKVR) [SEQ. ID. NO. 86] | 14 | 25 | 25 | 
C-F-Q-A-Q-R-N-M-R-K-V-R (CFQAQRNMRKVR) [SEQ. ID. NO. 71] | 14 | 12 | 25 | 
C-F-Q-W-Q-R-A-M-R-K-V-R (CFQWQRAMRKVR) [SEQ. ID. NO. 74] | 3.5 | 6 | 6 | 
C-F-Q-W-Q-R-N-M-R-A-V-R (CFQWQRNMRAVR) [SEQ. ID. NO. 77] | 7 | 25 | 12 | 
C-F-Q-W-Q-R-Nle-M-R-K-V-R (CFQWQR[Nle]MRKVR) [SEQ. ID. NO. 90] | 3.5 | 12 | 12 | 
C-F-Q-W-E-R-N-M-R-K-V-R (CFQWERNMRKVR) [SEQ. ID. NO. 84] | 14 | 12 | 25 | 
C-F-Q-W-Q-E-N-M-R-K-V-R (CFQWQENMRKVR) [SEQ. ID. NO. 85] | >28 | >50 | >25 | 
A-F-Q-W-Q-R-N-M-R-K-V-R (AFQWQRNMRKVR) [SEQ. ID. NO. 68] | 28 | 12 | >25 | 
C-A-Q-W-Q-R-N-M-R-K-V-R (CAQWQRNMRKVR) [SEQ. ID. NO. 69] | 14 | 12 | 12 | 
